25 compounds from EP4692090A1 (Shanghai Fosun Pharmaceutical (Group) Co., Ltd., priority 2023, dated 2024) can be followed below.

Read-outs that look alike come from different tables or passages of the source.

One experiment addresses T1, ATR kinase (Homo sapiens, UniProt Q13535).
T1 construct: purchased Eurofins 14-953
As to the kind of experiment: Inhibitory effect on ATR kinase activity (Caliper mobility shift, FAM-labeled RAD17 peptide substrate). The experiment is classed as biochemical. Put shortly:
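Caliper mobility-shift assay with 1 nM ATR, FAM-labeled RAD17 peptide […] and 5 mM ATP in HEPES pH 7.5 with 10 mM MnCl2, run 3 h at 28 °C and stopped with EDTA. Compounds were tested in 10-point 3-fold dilutions from 1 µM. IC50 was fitted from % inhibition of substrate conversion versus blank control.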

The next experiment deals with LoVo cells. The experiment is described as follows: LoVo cell proliferation assay (CellTiter-Glo). The experiment is classed as cell-based. As to conditions: Homo sapiens, LoVo, 120 h, maximum concentration 10 µM, 9 concentrations. An outline of the steps: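 LoVo cells, 2,000 per well, were treated after overnight attachment with 9-point 3-fold dilutions from 10 µM for 5 days at 37 °C. Viability was read by CellTiter-Glo luminescence. Inhibition % was taken relative to DMSO control, and IC50 came from the concentration–inhibition curve.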

[1] abbreviates: 1 nM ATR kinase (Eurofins), 28°C for 3 hours, maximum concentration 1 µM, 10 concentrations, read-out: ATR kinase IC50.
Where [2] appears, read: LoVo cells, 2,000 cells per well, 5 days incubation, CellTiter-Glo, read-out: LoVo IC50.
Setting [3] is: read-out: LoVo IC50 (nM), LoVo cells, 2,000 cells per well, 5 days incubation, CellTiter-Glo.
Setting [4] is: read-out: ATR kinase IC50, 1 nM ATR kinase (Eurofins), 28°C for 3 hours, maximum concentration 1 µM, 10 concentrations.

T1 sequence (Q13535 whole entry): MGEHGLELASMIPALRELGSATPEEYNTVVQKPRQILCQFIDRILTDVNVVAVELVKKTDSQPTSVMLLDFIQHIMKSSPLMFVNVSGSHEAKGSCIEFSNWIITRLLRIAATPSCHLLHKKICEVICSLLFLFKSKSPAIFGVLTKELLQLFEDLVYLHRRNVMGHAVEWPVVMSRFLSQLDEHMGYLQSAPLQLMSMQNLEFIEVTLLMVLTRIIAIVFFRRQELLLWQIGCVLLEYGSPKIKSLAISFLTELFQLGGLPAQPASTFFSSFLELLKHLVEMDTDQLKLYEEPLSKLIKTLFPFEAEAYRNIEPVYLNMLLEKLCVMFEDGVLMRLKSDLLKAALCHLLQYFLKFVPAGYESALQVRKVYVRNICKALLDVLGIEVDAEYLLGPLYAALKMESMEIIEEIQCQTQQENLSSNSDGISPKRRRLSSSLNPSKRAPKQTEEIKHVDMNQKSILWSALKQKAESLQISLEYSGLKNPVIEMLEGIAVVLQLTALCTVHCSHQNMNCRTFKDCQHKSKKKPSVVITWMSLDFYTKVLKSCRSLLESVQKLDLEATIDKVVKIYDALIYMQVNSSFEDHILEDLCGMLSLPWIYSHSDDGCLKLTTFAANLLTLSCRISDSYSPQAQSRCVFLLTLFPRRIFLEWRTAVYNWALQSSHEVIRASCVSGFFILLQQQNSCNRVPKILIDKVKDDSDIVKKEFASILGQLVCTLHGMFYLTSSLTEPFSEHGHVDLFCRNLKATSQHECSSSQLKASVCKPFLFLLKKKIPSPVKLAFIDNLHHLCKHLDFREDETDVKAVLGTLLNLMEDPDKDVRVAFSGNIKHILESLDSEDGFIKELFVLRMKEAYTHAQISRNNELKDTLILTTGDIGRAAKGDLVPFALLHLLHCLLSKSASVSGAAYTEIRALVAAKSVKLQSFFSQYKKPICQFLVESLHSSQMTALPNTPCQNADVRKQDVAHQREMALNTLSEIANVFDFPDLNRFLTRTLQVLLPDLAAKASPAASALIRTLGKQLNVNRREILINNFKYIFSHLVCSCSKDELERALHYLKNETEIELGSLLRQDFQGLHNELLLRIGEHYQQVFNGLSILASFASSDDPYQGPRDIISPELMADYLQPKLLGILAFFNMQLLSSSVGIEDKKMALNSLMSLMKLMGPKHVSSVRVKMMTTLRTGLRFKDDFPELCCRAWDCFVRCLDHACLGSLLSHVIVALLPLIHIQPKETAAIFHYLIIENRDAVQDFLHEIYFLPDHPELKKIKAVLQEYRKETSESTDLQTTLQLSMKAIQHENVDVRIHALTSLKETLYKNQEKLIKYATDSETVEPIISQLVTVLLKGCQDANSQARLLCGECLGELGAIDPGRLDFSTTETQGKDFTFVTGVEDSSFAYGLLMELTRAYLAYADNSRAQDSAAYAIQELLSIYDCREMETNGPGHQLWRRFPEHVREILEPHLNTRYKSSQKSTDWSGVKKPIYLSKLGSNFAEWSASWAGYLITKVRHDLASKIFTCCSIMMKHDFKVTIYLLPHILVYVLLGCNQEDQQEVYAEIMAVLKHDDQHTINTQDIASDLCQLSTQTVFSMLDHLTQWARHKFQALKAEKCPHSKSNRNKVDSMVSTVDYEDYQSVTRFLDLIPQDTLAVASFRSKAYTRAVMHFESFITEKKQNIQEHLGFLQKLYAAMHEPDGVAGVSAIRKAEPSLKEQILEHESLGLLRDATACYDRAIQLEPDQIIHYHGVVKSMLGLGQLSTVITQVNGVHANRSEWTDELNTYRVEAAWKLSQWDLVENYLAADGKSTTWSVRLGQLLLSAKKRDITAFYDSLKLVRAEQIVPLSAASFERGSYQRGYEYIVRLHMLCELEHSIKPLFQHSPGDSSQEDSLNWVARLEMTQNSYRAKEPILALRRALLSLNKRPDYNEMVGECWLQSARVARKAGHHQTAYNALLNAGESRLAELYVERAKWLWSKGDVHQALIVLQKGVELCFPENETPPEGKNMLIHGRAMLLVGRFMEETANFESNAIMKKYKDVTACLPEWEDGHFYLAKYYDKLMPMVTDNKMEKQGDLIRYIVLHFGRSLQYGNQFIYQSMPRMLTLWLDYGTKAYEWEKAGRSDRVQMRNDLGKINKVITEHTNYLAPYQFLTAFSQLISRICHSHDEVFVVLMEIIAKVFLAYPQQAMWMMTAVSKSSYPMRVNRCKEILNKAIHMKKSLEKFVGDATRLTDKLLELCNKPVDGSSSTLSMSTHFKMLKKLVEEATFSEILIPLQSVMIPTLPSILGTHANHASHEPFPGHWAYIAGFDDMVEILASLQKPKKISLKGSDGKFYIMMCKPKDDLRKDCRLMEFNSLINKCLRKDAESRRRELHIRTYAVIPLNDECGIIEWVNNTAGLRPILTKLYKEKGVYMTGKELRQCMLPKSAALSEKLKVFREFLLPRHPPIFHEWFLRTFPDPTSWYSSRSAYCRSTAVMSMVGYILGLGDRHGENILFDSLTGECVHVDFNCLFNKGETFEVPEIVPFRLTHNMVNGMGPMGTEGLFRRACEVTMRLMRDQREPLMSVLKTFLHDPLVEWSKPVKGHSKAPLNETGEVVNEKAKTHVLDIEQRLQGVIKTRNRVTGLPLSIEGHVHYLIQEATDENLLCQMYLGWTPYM
T1 sequence (Q8WXE1 whole entry partner): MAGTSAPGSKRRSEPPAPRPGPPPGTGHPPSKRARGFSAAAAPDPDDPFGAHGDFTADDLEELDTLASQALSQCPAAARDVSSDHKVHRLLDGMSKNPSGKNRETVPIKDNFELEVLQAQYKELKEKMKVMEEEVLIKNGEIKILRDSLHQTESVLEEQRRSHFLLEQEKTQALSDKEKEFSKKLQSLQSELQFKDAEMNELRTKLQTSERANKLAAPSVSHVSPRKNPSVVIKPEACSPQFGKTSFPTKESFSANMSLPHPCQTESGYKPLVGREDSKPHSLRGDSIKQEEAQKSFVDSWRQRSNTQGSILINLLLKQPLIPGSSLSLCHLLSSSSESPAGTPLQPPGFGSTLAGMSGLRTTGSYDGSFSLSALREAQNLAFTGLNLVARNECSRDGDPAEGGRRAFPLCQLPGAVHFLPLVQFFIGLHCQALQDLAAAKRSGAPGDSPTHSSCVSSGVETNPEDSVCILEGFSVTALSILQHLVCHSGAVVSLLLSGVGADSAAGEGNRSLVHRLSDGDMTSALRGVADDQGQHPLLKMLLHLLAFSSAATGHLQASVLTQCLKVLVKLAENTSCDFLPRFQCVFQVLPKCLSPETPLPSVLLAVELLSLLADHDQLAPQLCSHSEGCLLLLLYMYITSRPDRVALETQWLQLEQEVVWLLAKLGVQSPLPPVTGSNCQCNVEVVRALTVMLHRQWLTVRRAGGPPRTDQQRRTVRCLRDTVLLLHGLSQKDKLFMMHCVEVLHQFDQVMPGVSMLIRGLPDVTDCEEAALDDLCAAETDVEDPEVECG

Take `CC1=NCCn2nc(-c3cc[nH]n3)c3nc(N4CCOC[C@H]4C)cc1c32` [Compound 58, (R)-3-methyl-4-(6-methyl-2-(1H-pyrazol-3-yl)-8,9-dihydro-1,3,7,9a-tetraazabenzo[cd]azulen-4-yl)morpholine]: the IC50 at ATR kinase (setting [1]) was 10 to 100 nM; in the experiment with LoVo cells (setting [2]), 100 to 1000 nM.
Turning to `C[C@@H]1COCCN1c1cc2c3c(n1)c(-c1cc[nH]n1)nn3CCN2C` [Compound 62, (R)-3-methyl-4-(5-methyl-1-(1H-pyrazol-3-yl)-4,5-dihydro-3H-2,2a,5,8-tetraazaacenaphthen-7-yl)morpholine], the results for the IC50 at ATR kinase (setting [1]) and with LoVo cells (setting [2]) were 1000 to 2500 nM and greater than 1000 nM, respectively.
With `CC(C)N1CCn2nc(-c3cc[nH]n3)c3nc(N4CCOC[C@H]4C)cc1c32` [Compound 63, (R)-4-(5-isopropyl-1-(1H-pyrazol-3-yl)-4,5-dihydro-3H-2,2a,5,8-tetraazaacenaphthen-7-yl)-3-methylmorpholine], the IC50 on ATR kinase (setting [1]) and in the experiment with LoVo cells (setting [2]) was 100 to 1000 nM throughout.
With `C[C@@H]1COCCN1c1cc2c3c(nn(-c4cc[nH]n4)c3n1)CCC(=O)N2C1(C)CC1` [Compound 75, (R)-6-(1-methylcyclopropyl)-4-(3-methylmorpholino)-2-(1H-pyrazol-3-yl)-2,6,8,9-tetrahydro-7H-1,2,3,6-tetraazabenzo[cd]azulene-7-one], the results for the IC50 at ATR kinase (setting [1]) and with LoVo cells (setting [2]) were less than 10 nM and less than 100 nM, respectively.
In the same order, the values of `C[C@@H]1COCCN1c1cc2c3c(nn(-c4cc[nH]n4)c3n1)CCC(=O)N2CC1(C)CC1` [Compound 77, (R)-6-((1-methylcyclopropyl)methyl)-4-(3-methylmorpholino)-2-(1H-pyrazol-3-yl)-2,6,8,9-tetrahydro-7H-1,2,3,6-tetraazabenzo[cd]azulene-7-one] are less than 10 nM and less than 100 nM.
As for `CC(C)N1C(=O)CCc2nn(-c3cc[nH]n3)c3nc(N4CCOC[C@H]4C)cc1c23` [Compound 78, (R)-6-isopropyl-4-(3-methylmorpholino)-2-(1H-pyrazol-3-yl)-2,6,8,9-tetrahydro-7H-1,2,3,6-tetraazabenzo[cd]azulene-7-one], the IC50 at ATR kinase (setting [1]) is less than 10 nM; in the experiment with LoVo cells (setting [3]), less than 100 nM.
Turning to `C[C@@H]1COCCN1c1cc2c3c(nn(-c4cc[nH]n4)c3n1)CCC(=O)N2C1CC(F)(F)C1` [Compound 79, (R)-6-(3,3-difluorocyclobutyl)-4-(3-methylmorpholinyl)-2-(1H-pyrazol-3-yl)-2,6,8,9-tetrahydro-7H-1,2,3,6-tetraazabenzo[cd]azulene-7-one], the results for the IC50 at ATR kinase (setting [4]) and in the experiment with LoVo cells (setting [3]) were less than 10 nM and 100 to 1000 nM, respectively.
With `CC(C)N1C(=O)CCn2nc(-c3cc[nH]n3)c3nc(N4CCOC[C@H]4C)cc1c32` [Compound 81, (R)-6-isopropyl-4-(3-methylmorpholinyl)-2-(1H-pyrazol-3-yl)-8,9-dihydro-1,3,6,9a-tetraazabenzo[cd]azulene-7(6H)-one], the IC50 at ATR kinase (setting [4]) is less than 10 nM; in the experiment on LoVo cells (setting [3]), less than 100 nM.
For the compound `C[C@@H]1COCCN1c1cc2c3c(n1)c(-c1cc[nH]n1)nn3CCC(=O)N2C1CC1` [Compound 82, (R)-6-cyclopropyl-4-(3-methylmorpholino)-2-(1H-pyrazol-3-yl)-8,9-dihydro-1,3,6,9a-tetraazabenzo[cd]azulene-7(6H)-one], the values for the IC50 on ATR kinase (setting [1]) and in the experiment with LoVo cells (setting [2]) were less than 10 nM and less than 100 nM, respectively.
With `C[C@@H]1COCCN1c1cc2c3c(n1)c(-c1cc[nH]n1)nn3CCC(=O)N2CC1CC1` [Compound 83, (R)-6-(cyclopropylmethyl)-4-(3-methylmorpholino)-2-(1H-pyrazol-3-yl)-8,9-dihydro-1,3,6,9a-tetraazabenzo[cd]azulene-7(6H)-one], the IC50 on ATR kinase (setting [1]) was 10 to 100 nM; in the experiment with LoVo cells (setting [2]) it was less than 100 nM.
For `CC(C)CN1C(=O)CCn2nc(-c3cc[nH]n3)c3nc(N4CCOC[C@H]4C)cc1c32` [Compound 84, (R)-6-isobutyl-4-(3-methylmorpholino)-2-(1H-pyrazol-3-yl)-8,9-dihydro-1,3,6,9a-tetraazabenzo[cd]azulene-7(6H)-one], the IC50 is less than 10 nM on ATR kinase (setting [1]) and less than 100 nM in the experiment with LoVo cells (setting [2]).
In the case of `C[C@@H]1COCCN1c1cc2c3c(n1)c(-c1cc[nH]n1)nn3CCC(=O)N2CCC(F)(F)F` [Compound 85, (R)-4-(3-methylmorpholino)-2-(1H-pyrazol-3-yl)-6-(3,3,3-trifluoropropyl)-8,9-dihydro-1,3,6,9a-tetraazabenzo[cd]azulene-7(6H)-one], the IC50 at ATR kinase (setting [1]) is 10 to 100 nM; in the experiment on LoVo cells (setting [2]), less than 100 nM.
Consider `C[C@@H]1COCCN1c1cc2c3c(n1)c(-c1cc[nH]n1)nn3CCC(=O)N2C` [Compound 86, (R)-6-methyl-4-(3-methylmorpholino)-2-(1H-pyrazol-3-yl)-8,9-dihydro-1,3,6,9a-tetraazabenzo[cd]azulene-7(6H)-one], for which the IC50 at ATR kinase (setting [1]) and with LoVo cells (setting [2]) was 100 to 1000 nM in each case.
For `C[C@@H]1COCCN1c1cc2c3c(n1)c(-c1cc[nH]n1)nn3CCC(=O)N2CC1(C)CC1` [Compound 87, (R)-6-((1-methylcyclopropyl)methyl)-4-(3-methylmorpholinyl)-2-(1H-pyrazol-3-yl)-8,9-dihydro-1,3,6,9a-tetraazabenzo[cd]azulene-7(6H)-one], the IC50 at ATR kinase (setting [4]) was 10 to 100 nM; in the experiment with LoVo cells (setting [3]), less than 100 nM.
For the compound `C[C@@H]1COCCN1c1cc2c3c(n1)c(-c1cc[nH]n1)nn3CCC(=O)N2C1(C)CC1` [Compound 88, (R)-6-(1-methylcyclopropyl)-4-(3-methylmorpholinyl)-2-(1H-pyrazol-3-yl)-8,9-dihydro-1,3,6,9a-tetraazabenzo[cd]azulene-7(6H)-one], the IC50 on ATR kinase (setting [4]) is less than 10 nM; in the experiment with LoVo cells (setting [3]), less than 100 nM.
In the same order, the values of `C[C@@H]1COCCN1c1cc2c3c(n1)c(-c1cc[nH]n1)nn3CCC(=O)N2C1CC1(F)F` (stereo partly drawn) [Compound 89, 6-(2,2-difluorocyclopropyl)-4-((R)-3-methylmorpholinyl)-2-(1H-pyrazol-3-yl)-8,9-dihydro-1,3,6,9a-tetraazabenzo[cd]azulene-7(6H)-one] are less than 10 nM and 100 to 1000 nM.
As for `C[C@@H]1COCCN1c1cc2c3c(n1)c(-c1cc[nH]n1)nn3CCC(=O)N2C1CCOC1` (stereo partly drawn) [Compound 90, 4-((R)-3-methylmorpholino)-2-(1H-pyrazol-3-yl)-6-(tetrahydrofuran-3-yl)-8,9-dihydro-1,3,6,9a-tetraazabenzo[cd]azulene-7(6H)-one], the IC50 is 10 to 100 nM at ATR kinase (setting [1]) and 100 to 1000 nM in the experiment on LoVo cells (setting [2]).
Regarding `C[C@@H]1COCCN1c1cc2c3c(n1)c(-c1cc[nH]n1)nn3CCC(=O)N2C1CCOCC1` [Compound 91, (R)-4-(3-methylmorpholino)-2-(1H-pyrazol-3-yl)-6-(tetrahydro-2H-pyran-4-yl)-8,9-dihydro-1,3,6,9a-tetraazabenzo[cd]azulene-7(6H)-one], the IC50 at ATR kinase (setting [1]) was in the range of 10 to 100 nM; in the experiment on LoVo cells (setting [2]), 100 to 1000 nM.
With `C[C@@H]1COCCN1c1cc2c3c(n1)c(-c1cc[nH]n1)nn3CCC(=O)N2C1CC2(CCC2)C1` [Compound 92, (R)-4-(3-methylmorpholino)-2-(1H-pyrazol-3-yl)-6-(spiro [3.3]hept-2-yl)-8,9-dihydro-1,3,6,9a-tetraazabenzo[cd]azulene-7(6H)-one], the results for the IC50 on ATR kinase (setting [1]) and in the experiment with LoVo cells (setting [2]) were 10 to 100 nM and 100 to 1000 nM, respectively.
As for `C[C@@H]1COCCN1c1cc2c3c(n1)c(-c1cc[nH]n1)nn3CCC(=O)N2` [Compound 93, (R)-4-(3-methylmorpholino)-2-(1H-pyrazol-3-yl)-8,9-dihydro-1,3,6,9a-tetraazabenzo[cd]azulene-7(6H)-one], the IC50 on ATR kinase (setting [1]) lay within 10 to 100 nM; in the experiment on LoVo cells (setting [2]), 100 to 1000 nM.
As for `C[C@@H]1COCCN1c1cc2c3c(n1)c(-c1cc[nH]n1)nn3CCC(=O)N2CC(C)(C)O` [Compound 95, (R)-6-(2-hydroxy-2-methylpropyl)-4-(3-methylmorpholinyl)-2-(1H-pyrazol-3-yl)-8,9-dihydro-1,3,6,9a-tetraazabenzo[cd]azulene-7(6H)-one], the IC50 lay in the range of 10 to 100 nM on ATR kinase (setting [4]) and 100 to 1000 nM with LoVo cells (setting [3]).
In the same order, the values of `C[C@@H]1COCCN1c1cc2c3c(n1)c(-c1cc[nH]n1)nn3CCC(=O)N2C1CC1C(F)(F)F` (stereo partly drawn) [Compound 96, 4-((R)-3-methylmorpholinyl)-2-(1H-pyrazol-3-yl)-6-(2-(trifluoromethyl)cyclopropyl)-8,9-dihydro-1,3,6,9a-tetraazabenzo[cd]azulene-7(6H)-one] are 10 to 100 nM and 100 to 1000 nM.
As to `C[C@@H]1COCCN1c1cc2c3c(n1)c(-c1cc[nH]n1)nn3CCC(=O)N2C1CC2(CC(O)C2)C1` (stereo partly drawn) [Compound 97, (R)-6-(6-hydroxyspiro[3.3]hept-2-yl)-4-(3-methylmorpholinyl)-2-(1H-pyrazol-3-yl)-8,9-dihydro-1,3,6,9a-tetraazabenzo[cd]azulene-7(6H)-one], the figures for the IC50 on ATR kinase (setting [4]) and in the experiment on LoVo cells (setting [3]) were less than 10 nM and 100 to 1000 nM, respectively.
As for `CCC(C)N1C(=O)CCn2nc(-c3cc[nH]n3)c3nc(N4CCOC[C@H]4C)cc1c32` (stereo partly drawn) [Compound 98, 6-(sec-butyl)-4-((R)-3-methylmorpholinyl)-2-(1H-pyrazol-3-yl)-8,9-dihydro-1,3,6,9a-tetraazabenzo[cd]azulene-7(6H)-one], the IC50 on ATR kinase (setting [4]) was less than 10 nM; with LoVo cells (setting [3]), less than 100 nM.
Take `C[C@@H]1COCCN1c1cc2c3c(n1)c(-c1cc[nH]n1)nn3CCC(=O)N2Cc1cnn(C)c1` [Compound 99, (R)-6-((1-methyl-1H-pyrazol-4-yl)methyl)-4-(3-methylmorpholinyl)-2-(1H-pyrazol-3-yl)-8,9-dihydro-1,3,6,9a-tetraazabenzo[cd]azulene-7(6H)-one]: the results for the IC50 at ATR kinase (setting [4]) and in the experiment on LoVo cells (setting [3]) were 10 to 100 nM and 100 to 1000 nM, respectively.
